Measurements published in patent publication US10780074B2, “Compounds and uses thereof” (Sunovion Pharmaceuticals Inc., priority 2017, dated 2020).
Counter-ions that a name gives are not always drawn.

System: behaviors of compound-treated mice
Assay: Neuropharmacological Assay (SmartCube)
Type: in vivo
Conditions: for minimal effective dose: Mus musculus, ip, 0.25 h, dose having 50% or more total activity in SmartCube, i.p., read-out: MED (minimal effective dose); for AD: ADHD (probability that activity matches class) / AG: analgesic (probability that activity matches class) / AX: anxiolytic (probability that activity matches class) / CE: cognitive enhancer (probability that activity matches class) / DP: anti-depressant (probability that activity matches class) / MS: mood stabilizer (probability that activity matches class) / PS: anti-psychotic (probability that activity matches class) / SD: sedative hypnotic (probability that activity matches class) / UN: uncharacterized CNS activity (probability that activity matches class): i.p. 15 min before behavioral test, most efficacious dose(s) of 3 doses
From the text: Neuropharmacological Assay (SmartCube™)
Neurosci. 2011 Sep. 9; 5:103 (doi: 10.3389/fnins.2011.00103) (“Roberds”). As reported in Roberds, because psychiatric diseases generally result from disorders of cell-cell communication or circuitry, intact systems are useful in detecting improvement in disease-relevant endpoints. These endpoints are typically behavioral in nature, often requiring human observation and interpretation. To facilitate testing of multiple compounds for behavioral effects relevant to psychiatric disease, PsychoGenics, Inc. (Tarrytown, N.Y., “PGI”) developed SmartCube™, an automated system in which behaviors of compound-treated mice are captured by digital video and analyzed with computer algorithms. (D. Brunner et al., Drug Discov. Today 2002, 7:S107-S112). PGI Analytical Systems uses data from SmartCube™ to compare the behavioral signature of a test compound to a database of behavioral signatures obtained using a large set of diverse reference compounds. (The composition of the database as well as validation of the method is further described in Roberds). In this way, the neuropharmacological effects of a test compound can be predicted by similarity to major classes of compounds, such as antipsychotics, anxiolytics and antidepressants.
The SmartCube™ system produces an activity signature indicating the probability that the activity of the test compound at the administered dose matches a given class of neuropharmacological agents. (See, e.g., Roberds, FIGS. 2 and 3). The test compound is simultaneously compared against multiple classes of agents; thus, a separate probability is generated for each behavioral effect measured (e.g., anxiolytic activity, analgesic activity, etc.). In the table below, these probabilities are reported for each behavioral effect measured as follows:
Provided compounds were dissolved in a mixture of Pharmasolve™ (N-methyl-2-pyrrolidone), polyethylene glycol and propylene glycol, and were injected i.p. 15 min. before the behavioral test. For each compound, injections were administered at 3 different doses. For each behavioral effect measured, results for the most efficacious dose(s) are presented. In the table below, DP: anti-depressant; AX: anxiolytic; SD: sedative hypnotic; PS: anti-psychotic; MS: mood stabilizer; AD: ADHD; CE: cognitive enhancer; AG: analgesic; UN: uncharacterized CNS activity.
The potency of many of the compounds in the table was also determined in the SmartCube™ system. Test compounds were routinely examined at dose levels of 0.3, 1, 3 10 and 30 mg per kg (mpk), although the dose range was increased or decreased if necessary to obtain a full dose response curve. A compound's minimal effective dose (MED) is a measure of the compounds potency. The MED was defined as the dose (in mpk) having 50% or more total activity in SmartCube.

Compound: NC[C@@H]1OCCc2c(-c3ccno3)cccc21 (single isomer, unassigned) [Compound 92, hydrochloride salt]
- minimal effective dose: ≤ 3 mg/kg
- AD: ADHD (probability that activity matches class): ++ (5% ≤ ++ <25%)
- AG: analgesic (probability that activity matches class): + (LOQ ≤ + <5%)
- AX: anxiolytic (probability that activity matches class): ++ (5% ≤ ++ <25%)
- CE: cognitive enhancer (probability that activity matches class): + (LOQ ≤ + <5%)
- DP: anti-depressant (probability that activity matches class): ++ (5% ≤ ++ <25%)
- MS: mood stabilizer (probability that activity matches class): + (LOQ ≤ + <5%)
- PS: anti-psychotic (probability that activity matches class): + (LOQ ≤ + <5%)
- SD: sedative hypnotic (probability that activity matches class): ++ (5% ≤ ++ <25%)
- UN: uncharacterized CNS activity (probability that activity matches class): +++ (25% ≤ +++ <50%)

Compound: CNCC1OCCc2c(-c3cnoc3)cccc21 (centres unmarked) [Compound 65, 1-(5-(Isoxazol-4-yl)isochroman-1-yl)-N-methylmethanamine hydrochloride salt]
- minimal effective dose: 3 to 10 mg/kg
- AD: ADHD (probability that activity matches class): ++ (5% ≤ ++ <25%)
- AG: analgesic (probability that activity matches class): + (LOQ ≤ + <5%)
- AX: anxiolytic (probability that activity matches class): + (LOQ ≤ + <5%)
- CE: cognitive enhancer (probability that activity matches class): ++ (5% ≤ ++ <25%)
- DP: anti-depressant (probability that activity matches class): ++++ (50% ≤ ++++)
- MS: mood stabilizer (probability that activity matches class): + (LOQ ≤ + <5%)
- PS: anti-psychotic (probability that activity matches class): ++ (5% ≤ ++ <25%)
- SD: sedative hypnotic (probability that activity matches class): ++ (5% ≤ ++ <25%)
- UN: uncharacterized CNS activity (probability that activity matches class): ++ (5% ≤ ++ <25%)

Compound: CNC[C@@H]1OCCc2ccc(-c3cccnc3)cc21 (single isomer, unassigned) [Compound 3, dihydrochloride]
- minimal effective dose: 3 to 10 mg/kg
- AD: ADHD (probability that activity matches class): + (LOQ ≤ + <5%)
- AG: analgesic (probability that activity matches class): ++ (5% ≤ ++ <25%)
- AX: anxiolytic (probability that activity matches class): ++ (5% ≤ ++ <25%)
- CE: cognitive enhancer (probability that activity matches class): ++ (5% ≤ ++ <25%)
- DP: anti-depressant (probability that activity matches class): ++ (5% ≤ ++ <25%)
- MS: mood stabilizer (probability that activity matches class): ++ (5% ≤ ++ <25%)
- PS: anti-psychotic (probability that activity matches class): ++ (5% ≤ ++ <25%)
- SD: sedative hypnotic (probability that activity matches class): + (LOQ ≤ + <5%)
- UN: uncharacterized CNS activity (probability that activity matches class): ++ (5% ≤ ++ <25%)

Compound: CNC[C@H]1OCCc2c(-c3ncccn3)cccc21 [Compound 23, (S)—N-Methyl-1-(5-(pyrimidin-2-yl)isochroman-1-yl)methanamine hydrochloride salt]
- minimal effective dose: 10 to 30 mg/kg
- AD: ADHD (probability that activity matches class): ++ (5% ≤ ++ <25%)
- AG: analgesic (probability that activity matches class): ++ (5% ≤ ++ <25%)
- AX: anxiolytic (probability that activity matches class): ++ (5% ≤ ++ <25%)
- CE: cognitive enhancer (probability that activity matches class): + (LOQ ≤ + <5%)
- DP: anti-depressant (probability that activity matches class): ++++ (50% ≤ ++++)
- MS: mood stabilizer (probability that activity matches class): + (LOQ ≤ + <5%)
- PS: anti-psychotic (probability that activity matches class): + (LOQ ≤ + <5%)
- SD: sedative hypnotic (probability that activity matches class): + (LOQ ≤ + <5%)
- UN: uncharacterized CNS activity (probability that activity matches class): + (LOQ ≤ + <5%)

Compound: NC[C@H]1OCCCc2c(-c3ccncn3)cccc21 (single isomer, unassigned) [Compound 167]
- minimal effective dose: 10 to 30 mg/kg
- AD: ADHD (probability that activity matches class): + (LOQ ≤ + <5%)
- AG: analgesic (probability that activity matches class): + (LOQ ≤ + <5%)
- AX: anxiolytic (probability that activity matches class): + (LOQ ≤ + <5%)
- CE: cognitive enhancer (probability that activity matches class): + (LOQ ≤ + <5%)
- DP: anti-depressant (probability that activity matches class): + (LOQ ≤ + <5%)
- MS: mood stabilizer (probability that activity matches class): + (LOQ ≤ + <5%)
- PS: anti-psychotic (probability that activity matches class): + (LOQ ≤ + <5%)
- SD: sedative hypnotic (probability that activity matches class): + (LOQ ≤ + <5%)
- UN: uncharacterized CNS activity (probability that activity matches class): + (LOQ ≤ + <5%)

Compound: CNC[C@H]1OCCc2c(-c3ccnnc3)cccc21 (single isomer, unassigned) [Compound 77, hydrochloride salt]
- minimal effective dose: ≤ 3 mg/kg
- AD: ADHD (probability that activity matches class): + (LOQ ≤ + <5%)
- AG: analgesic (probability that activity matches class): + (LOQ ≤ + <5%)
- AX: anxiolytic (probability that activity matches class): ++ (5% ≤ ++ <25%)
- CE: cognitive enhancer (probability that activity matches class): + (LOQ ≤ + <5%)
- DP: anti-depressant (probability that activity matches class): ++++ (50% ≤ ++++)
- MS: mood stabilizer (probability that activity matches class): + (LOQ ≤ + <5%)
- PS: anti-psychotic (probability that activity matches class): + (LOQ ≤ + <5%)
- SD: sedative hypnotic (probability that activity matches class): + (LOQ ≤ + <5%)
- UN: uncharacterized CNS activity (probability that activity matches class): + (LOQ ≤ + <5%)

Compound: NCC1OCCc2c(-c3cnoc3)cccc21 (centres unmarked) [Compound 64, (5-(Isoxazol-4-yl)isochroman-1-yl)methanamine hydrochloride salt]
- minimal effective dose: 3 to 10 mg/kg
- AD: ADHD (probability that activity matches class): + (LOQ ≤ + <5%)
- AG: analgesic (probability that activity matches class): + (LOQ ≤ + <5%)
- AX: anxiolytic (probability that activity matches class): + (LOQ ≤ + <5%)
- CE: cognitive enhancer (probability that activity matches class): + (LOQ ≤ + <5%)
- DP: anti-depressant (probability that activity matches class): ++++ (50% ≤ ++++)
- MS: mood stabilizer (probability that activity matches class): + (LOQ ≤ + <5%)
- PS: anti-psychotic (probability that activity matches class): + (LOQ ≤ + <5%)
- SD: sedative hypnotic (probability that activity matches class): + (LOQ ≤ + <5%)
- UN: uncharacterized CNS activity (probability that activity matches class): ++ (5% ≤ ++ <25%)

Compound: CCNC[C@@H]1OCCc2c(-c3ccncc3)cccc21 (single isomer, unassigned) [Compound 66, hydrochloride salt]
- minimal effective dose: 10 to 30 mg/kg
- AD: ADHD (probability that activity matches class): + (LOQ ≤ + <5%)
- AG: analgesic (probability that activity matches class): + (LOQ ≤ + <5%)
- AX: anxiolytic (probability that activity matches class): ++ (5% ≤ ++ <25%)
- CE: cognitive enhancer (probability that activity matches class): + (LOQ ≤ + <5%)
- DP: anti-depressant (probability that activity matches class): ++ (5% ≤ ++ <25%)
- MS: mood stabilizer (probability that activity matches class): + (LOQ ≤ + <5%)
- PS: anti-psychotic (probability that activity matches class): + (LOQ ≤ + <5%)
- SD: sedative hypnotic (probability that activity matches class): + (LOQ ≤ + <5%)
- UN: uncharacterized CNS activity (probability that activity matches class): + (LOQ ≤ + <5%)

Compound: NC[C@H]1OCCc2c(-c3cnoc3)cccc21 (single isomer, unassigned) [Compound 87, hydrochloride salt]
- minimal effective dose: ≤ 3 mg/kg
- AD: ADHD (probability that activity matches class): ++ (5% ≤ ++ <25%)
- AG: analgesic (probability that activity matches class): + (LOQ ≤ + <5%)
- AX: anxiolytic (probability that activity matches class): ++++ (50% ≤ ++++)
- CE: cognitive enhancer (probability that activity matches class): + (LOQ ≤ + <5%)
- DP: anti-depressant (probability that activity matches class): ++++ (50% ≤ ++++)
- MS: mood stabilizer (probability that activity matches class): + (LOQ ≤ + <5%)
- PS: anti-psychotic (probability that activity matches class): + (LOQ ≤ + <5%)
- SD: sedative hypnotic (probability that activity matches class): + (LOQ ≤ + <5%)
- UN: uncharacterized CNS activity (probability that activity matches class): + (LOQ ≤ + <5%)

Compound: CNC[C@H]1OCCc2c(-c3ncco3)cccc21 [Compound 105, (S)—N-methyl-1-(5-(oxazol-2-yl)isochroman-1-yl)methanamine dihydrochloride]
- minimal effective dose: 3 to 10 mg/kg
- AD: ADHD (probability that activity matches class): + (LOQ ≤ + <5%)
- AG: analgesic (probability that activity matches class): + (LOQ ≤ + <5%)
- AX: anxiolytic (probability that activity matches class): + (LOQ ≤ + <5%)
- CE: cognitive enhancer (probability that activity matches class): + (LOQ ≤ + <5%)
- DP: anti-depressant (probability that activity matches class): ++++ (50% ≤ ++++)
- MS: mood stabilizer (probability that activity matches class): + (LOQ ≤ + <5%)
- PS: anti-psychotic (probability that activity matches class): + (LOQ ≤ + <5%)
- SD: sedative hypnotic (probability that activity matches class): + (LOQ ≤ + <5%)
- UN: uncharacterized CNS activity (probability that activity matches class): ++ (5% ≤ ++ <25%)

Compound: CNC[C@H]1OCCc2c(-c3ccncn3)cccc21 (single isomer, unassigned) [Compound 73, hydrochloride salt]
- minimal effective dose: 3 to 10 mg/kg
- AD: ADHD (probability that activity matches class): + (LOQ ≤ + <5%)
- AG: analgesic (probability that activity matches class): + (LOQ ≤ + <5%)
- AX: anxiolytic (probability that activity matches class): ++ (5% ≤ ++ <25%)
- CE: cognitive enhancer (probability that activity matches class): + (LOQ ≤ + <5%)
- DP: anti-depressant (probability that activity matches class): ++++ (50% ≤ ++++)
- MS: mood stabilizer (probability that activity matches class): + (LOQ ≤ + <5%)
- PS: anti-psychotic (probability that activity matches class): + (LOQ ≤ + <5%)
- SD: sedative hypnotic (probability that activity matches class): + (LOQ ≤ + <5%)
- UN: uncharacterized CNS activity (probability that activity matches class): + (LOQ ≤ + <5%)
